According to patent publication US4985445A, “Cancer cell metastasis inhibitors and novel compounds” (Meiji Seika Kaisha, Ltd., priority 1988, dated 1991):
Read-outs that look alike come from different tables or passages of the source.

Key:
[1] = tested on: B16 subline of high pulmonary metastatic potential; assay: Inhibition of pulmonary metastasis of B16 subline pretreated with compound and injected i.v. into BDF1 mice; format: in vivo, murine; mouse BDF1; details: for Inhibition of metastasis to the lungs (in words): B16 subline, BDF1 mice
Experimental: Based on the method described priviously (Method in Cancer Research, 15, 399-439, 1978), a subline of high metastatic potential (high pulmonary colonization) was selected from murine melanoma B16 by repeating the i.v. transplantation of the tumor cells in BDF1 mice and the isolation of pulmonary metastatic clones.
Evaluation of the metastasis inhibiting activity was performed based on the method described previously (Proc. Natl Acad. Sci. USA, 83, 1752-1756, 1986, Cancer Research, 46, 858-862, 1986).
Firstly, the B16 subline of high metastatic potential was inoculated into Dulbecco's ME medium (DME medium) supplemented with 10% bovine fetal serum and the compound represented by general formula (I) described above was added thereto.
The B16 subline of high pulmonary metastatic potential was inoculated into DME medium supplemented with 10% bovine fetal serum and 30, 100 or 300 μg/ml of N (3-phenylpropyl)-1-deoxynojirimycin was added thereto followed by incubation at 37° C. for 3 days in the presence of 5% CO2.
Inhibition of metastasis was examined in a manner similar to Test Example 2 except that N-(3-phenyl-2-propenyl)-1-deoxy-nojirimycin and N-(3-p-chlorophenyl-3-methyl-2-propenyl)-1-deoxynojirimycin were used instead of N-(3-phenylpropyl)-1-deoxynojirimycin in Test Example 2. In this test example, however, 2.5×10^5 cells each of the B16 subline were transplanted to 3 mice for each group.
The B16 subline of high pulmonary metastatic potential was inoculated into DME medium supplemented with 10% bovine fetal serum and 30 μg/ml of N-(4-phenoxy-trans-2-butenyl)-1-deoxynojirimycin was added thereto followed by incubation at 37° C. for 3 days in the presence of 5% CO2. […] The number of colonies of the B16 subline formed on the surface of and in the lung was counted.
Inhibition of metastasis was examined in a manner similar to Test Example 5 except that N-(2-phenoxyethyl)-1-deoxynojirimycin was used instead of N-(4-phenoxy-trans-2-butenyl)-1-deoxynojirimycin in Test Example 5.
The B16 sibline of high pulmonary metastatic potential was inoculated into DME medium supplemented with 10% bovine fetal serum and 10 μg/ml of D-glucaro-δ-lactam calcium salt was added thereto followed by incubation at 37° C. for 3 days in the presence of 5% CO2. […] The number of the colonies formed on the surface of and in the lung was counted.
Inhibition of metastasis was examined in a manner similar to Test Example 8 except that D-glucaro-δ-lactam methyl ester and D-glucaro-δ-lactam ethyl ester were used instead of D-glucaro-δ-lactam calcium salt in Test Example 8.
The B16 subline of high pulmonary metastatic potential was inoculated into DME medium supplemented with 10% bovine fetal serum and 10 μg/ml of 2,6-di-O-(acetylsalicyloyl)-D-gluco-δ-lactam was added thereto followed by incubation at 37° C. for 3 days in the presence of 5% CO2.
The B16 subline of high pulmonary metastatic potential was inoculated into DME medium supplemented with 10% bovine fetal serum and 30 μg/ml of 6-O-triphenylmethyl-D-gluco-δ-lactam was added thereto followed by incubation at 37° C. for 3 days in the presence of 5% CO2.
The B16 subline of high pulmonary metastatic potential was inoculated into DME medium supplemented with 10% bovine fetal serum and 30 μg/ml of 1-deoxynojirimycin was added thereto followed by incubation at 37° C. for 3 days in the presence of 5% CO2.

[2] = tested on: B16 subline of high pulmonary metastatic potential; details: 3 days;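 also: + means growth and ± means marked inhibition and - means cell death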
Experimental: (§1) The B16 subline of high pulmonary metastatic potential and murine tumor cell line L 929 were cultured in DME medium supplemented with 10% bovine fetal serum at 37° C. in the presence of 5% CO2. Then, cells were detached from the Petri dish with trypsin-EDTA solution. The B16 subline and L 929 were suspended in the medium described above in 1×10^4 cells/ml and 1×10^3 cells/ml, respectively. Each suspension, 150 μl, was added to 50 μl of N-(3-phenylpropyl)-1-deoxynojirimycin solution or Adriamycin (control) solution. Incubation was performed for 3 days for the B16 subline and for 4 days for L 929 strain.
as §1, with “of N-(4-phenoxy-trans-2-butenyl)-1-deoxynojirimycin” for “of N-(3-phenylpropyl)-1-deoxynojirimycin”, “days in” for “days for”, “L 929.” for “L 929 strain.”
as §1, with “of D-glucaro-δ-lactam calcium salt” for “of N-(3-phenylpropyl)-1-deoxynojirimycin”, “(control) solutions.” for “(control) solution.”, “days in” for “days for”, “L 929.” for “L 929 strain.”
The B16 subline of high pulmonary metastatic potential and murine tumor cell line L 929 were cultured in DME medium supplemented with 10% bovine fetal serum at 37° C. in the presence of 5% CO2. Then, cells were detached from the Petri dish with trypsin-EDTA solution. The B16 subline and L 929 were suspended in the medium described above in 1×10^4 cells/ml and 1×10^3 cells/ml, respectively. Each suspension, 150 μl, was added to 50 μl of 2,6-di-O-(1-(p-chlorobenzoyl)-5-methoxy-2-methylindole-3-acetyl)-D-gluco-δ-lactam solution or and Adriamycin (control) solutions. Incubation was performed for 3 days in the B16 subline and for 4 days in L 929.
The B16 subline of high pulmanary metastatic potential and murine tumor cell line L 929 were cultured in DME medium supplemented with 10% bovine fetal serum at 37° C. in the presence of 5% CO2. Then, cells were detached from the Petri dish with trypsin-EDTA solution. The B16 subline and L 929 were suspended in the medium described above in 1×10^4 cells/ml and 1×10^3 cells/ml, respectively. Each suspension, 150 μl, was added to 50 μl of 6-O-triphenylmethyl-D-gluco-δ-lactam solution or Adriamycin (control) solutions. Incubation was performed for 3 days in the B16 sibline and for 4 days in L 929.
The B16 subline of high pulmonary metastatic potential was inoculated into DME medium supplemented with 10% bovine fetal serum and 30 μg/ml of 1-deoxynojirimycin was added thereto followed by incubation at 37° C. for 3 days in the presence of 5% CO2. […] Next, the cells were detached from the Petri dish with trypsin-EDTA solution. The cells were suspended in PBS- in 1×10^6 cells/ml as viable cells. This suspension, 0.1 ml, was intravenously injected in the tail vein of the mouse BDF1 (8 week age, male; 1 group, 3 mice). After feeding for 14 days, the mouse was sacrificed to excise the lungs. The number of colonies of the B16 subline on the surface of and in the lungs was counted.

[3] = tested on: murine tumor cell line L 929; assay: Cytotoxic activity against L 929 (growth observed with inverted microscope, 4 days); format: cell-based; details: for Cytotoxicity (in words): L 929, even at a concentration as high as 30 μg/ml; for Growth: 4 days;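 as to growth: + means growth and ± means marked inhibition and - means cell death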
Experimental: The B16 subline of high pulmonary metastatic potential and murine tumor cell line L 929 were cultured in DME medium supplemented with 10% bovine fetal serum at 37° C. in the presence of 5% CO2.
The B16 subline of high pulmanary metastatic potential and murine tumor cell line L 929 were cultured in DME medium supplemented with 10% bovine fetal serum at 37° C. in the presence of 5% CO2.

[4] = Acute toxicity (LD50) by mice; details: mouse, in vivo

Structure (SMILES): O=C1N[C@H](COC(c2ccccc2)(c2ccccc2)c2ccccc2)[C@@H](O)[C@H](O)[C@H]1O [6-O-Triphenylmethyl-D-gluco-δ-lactam, 6-O-triphenylmethyl-D-gluco-δ-lactam]
- Inhibition of metastasis to the lungs (in words) [1]: markedly inhibited
- Pulmonary Metastasis (Mean ± Standard Deviation) ([1]; Table 14, 30 μg/ml, 3 mice, None 92 ± 21.3): 17 ± 8.5 no.
- Growth ([2]; Table 13, B16 subline, 3 μg/ml): +
- Growth ([2]; Table 13, B16 subline, 10 μg/ml): +
- Growth ([2]; Table 13, B16 subline, 30 μg/ml): +
- Cytotoxicity (in words) [3]: did not show marked cytotoxicity
- Growth ([3]; Table 13, L 929, 10 μg/ml): +
- Growth ([3]; Table 13, L 929, 30 μg/ml): +
- LD50 ([4]; sc): > 300 mg/kg

Structure (SMILES): OC[C@@H]1[C@@H](O)[C@H](O)[C@@H](O)CN1C/C=C/COc1ccccc1 [N-(4-phenoxy-trans-2-butenyl)-1-deoxynojirimycin]
- Inhibition of metastasis to the lungs (in words) [1]: the number of colonies on the surface of and in the lungs was decreased
- Pulmonary Metastasis, Mouse 1 ([1]; Table 6, 10 μg/ml, 14 days): 14 no.
- Pulmonary Metastasis, Mouse 2 ([1]; Table 6, 10 μg/ml, 14 days): 48 no.
- Pulmonary Metastasis, Mouse 3 ([1]; Table 6, 10 μg/ml, 14 days): 52 no.
- Pulmonary Metastasis, Mean ± Standard Derivation ([1]; Table 6, 10 μg/ml, 14 days, None 135 ± 13.4): 38 ± 20.9 no.
- Pulmonary Metastasis, % ([1]; Table 6, 10 μg/ml, None = 100): 28.1%
- Growth ([2]; Table 5, B16 subline, 3 μg/ml): +
- Growth ([2]; Table 5, B16 subline, 10 μg/ml): +
- Growth ([2]; Table 5, B16 subline, 30 μg/ml): +
- Cytotoxicity (in words) [3]: did not show the marked cytotoxicity
- Growth ([3]; Table 5, L 929, 3 μg/ml): +
- Growth ([3]; Table 5, L 929, 30 μg/ml): +
- Growth ([3]; Table 5, L 929, 100 μg/ml): +
- LD50 ([4]; ip): > 500 mg/kg
